# Experimental data published in ChEMBL document CHEMBL2424636, “Synthesis and anticancer activity evaluation of new 1,2,3-triazole-4-carboxamide derivatives” (2013).
# How the values were obtained:
# Type in all cases: functional
# PC-3 = assay: Cytotoxicity against human PC3 cells assessed as cell growth at 10^-5 M after 48 hrs by SRB assay; conditions: PC-3, 48 h, read-out: Activity
# HOP-92 [1] = assay: Cytotoxicity against human HOP92 cells assessed as cell growth at 10^-5 M after 48 hrs by SRB assay; conditions: HOP-92, 48 h, read-out: Activity
# HOP-62 = assay: Cytotoxicity against human HOP62 cells assessed as cell growth at 10^-5 M after 48 hrs by SRB assay; conditions: HOP-62, 48 h, read-out: Activity
# RPMI-8226 = assay: Cytotoxicity against human RPMI8226 cells assessed as cell growth at 10^-5 M after 48 hrs by SRB assay; conditions: RPMI-8226, 48 h, read-out: Activity
# T47D = assay: Cytotoxicity against human T47D cells assessed as cell growth at 10^-5 M after 48 hrs by SRB assay; conditions: read-out: Activity
# SNB-75 [2] = assay: Cytotoxicity against human SNB75 cells assessed as cell growth at 10^-5 M after 48 hrs by SRB assay; conditions: SNB-75, 48 h, read-out: Activity
# CAKI-1 = assay: Cytotoxicity against human Caki1 cells assessed as cell growth at 10^-5 M after 48 hrs by SRB assay; conditions: CAKI-1, 48 h, read-out: Activity
# A549 = assay: Cytotoxicity against human A549/ATCC cells assessed as cell growth at 10^-5 M after 48 hrs by SRB assay; conditions: A549, 48 h, read-out: Activity
# MDA-MB-231 = assay: Cytotoxicity against human MDA-MB-231/ATCC cells after 48 hrs by SRB assay; conditions: MDA-MB-231, 48 h
# Hs-578T = assay: Cytotoxicity against human Hs578T cells after 48 hrs by SRB assay
# TK-10 = assay: Cytotoxicity against human TK10 cells after 48 hrs by SRB assay; conditions: TK-10, 48 h
# RXF 393 [3] = assay: Cytotoxicity against human RXF393 cells after 48 hrs by SRB assay; conditions: RXF 393, 48 h
# SK-OV-3 = assay: Cytotoxicity against human SKOV3 cells after 48 hrs by SRB assay; conditions: SK-OV-3, 48 h
# OVCAR-4 = assay: Cytotoxicity against human OVCAR4 cells after 48 hrs by SRB assay; conditions: OVCAR-4, 48 h
# Malme-3M = assay: Cytotoxicity against human MALME-3M cells after 48 hrs by SRB assay
# U-251 [4] = assay: Cytotoxicity against human U251 cells after 48 hrs by SRB assay; conditions: U-251, 48 h
# SNB-75 [5] = assay: Cytotoxicity against human SNB75 cells after 48 hrs by SRB assay; conditions: SNB-75, 48 h
# SF-539 = assay: Cytotoxicity against human SF539 cells after 48 hrs by SRB assay; conditions: SF-539, 48 h
# SF-295 = assay: Cytotoxicity against human SF295 cells after 48 hrs by SRB assay; conditions: SF-295, 48 h
# SF-268 [6] = assay: Cytotoxicity against human SF268 cells after 48 hrs by SRB assay; conditions: SF-268, 48 h
# HOP-92 [7] = assay: Cytotoxicity against human HOP92 cells after 48 hrs by SRB assay; conditions: HOP-92, 48 h
# SR [8] = assay: Cytotoxicity against human SR cells after 48 hrs by SRB assay
# K562 [9] = assay: Cytotoxicity against human K562 cells after 48 hrs by SRB assay; conditions: K562, 48 h
# UO-31 = assay: Cytotoxicity against human UO31 cells assessed as cell growth at 10^-5 M after 48 hrs by SRB assay; conditions: UO-31, 48 h, read-out: Activity
# RXF 393 [10] = assay: Cytotoxicity against human RXF393 cells assessed as cell growth at 10^-5 M after 48 hrs by SRB assay; conditions: RXF 393, 48 h, read-out: Activity
# 786-0 = assay: Cytotoxicity against human 786-0 cells assessed as cell growth at 10^-5 M after 48 hrs by SRB assay; conditions: 786-0, 48 h, read-out: Activity
# K562 [11] = assay: Cytotoxicity against human K562 cells assessed as cell growth at 10^-5 M after 48 hrs by SRB assay; conditions: K562, 48 h, read-out: Activity
# MDA-MB-468 = assay: Cytotoxicity against human MDA-MB-468 cells assessed as cell growth at 10^-5 M after 48 hrs by SRB assay; conditions: MDA-MB-468, 48 h, read-out: Activity
# MCF7 = assay: Cytotoxicity against human MCF7 cells assessed as cell growth at 10^-5 M after 48 hrs by SRB assay; conditions: MCF7, 48 h, read-out: Activity
# SK-MEL-5 = assay: Cytotoxicity against human SK-MEL-5 cells assessed as cell growth at 10^-5 M after 48 hrs by SRB assay; conditions: SK-MEL-5, 48 h, read-out: Activity
# OVCAR-8 = assay: Cytotoxicity against human OVCAR8 cells assessed as cell growth at 10^-5 M after 48 hrs by SRB assay; conditions: OVCAR-8, 48 h, read-out: Activity
# U-251 [12] = assay: Cytotoxicity against human U251 cells assessed as cell growth at 10^-5 M after 48 hrs by SRB assay; conditions: U-251, 48 h, read-out: Activity
# SF-268 [13] = assay: Cytotoxicity against human SF268 cells assessed as cell growth at 10^-5 M after 48 hrs by SRB assay; conditions: SF-268, 48 h, read-out: Activity
# [14] = Cytotoxicity against human EKVX cells assessed as cell growth at 10^-5 M after 48 hrs by SRB assay; conditions: read-out: Activity
# SR [15] = assay: Cytotoxicity against human SR cells assessed as cell growth at 10^-5 M after 48 hrs by SRB assay; conditions: read-out: Activity
# MOLT-4 = assay: Cytotoxicity against human MOLT4 cells assessed as cell growth at 10^-5 M after 48 hrs by SRB assay; conditions: MOLT-4, 48 h, read-out: Activity
compound,measurement,setting,value
CCc1c(C(=O)Nc2ccccc2Cl)nnn1-c1ccc2noc(-c3ccccc3)c2c1,growth at 10 µM,PC-3,60.6%
same,growth at 10 µM,HOP-92 [1],58.4%
same,growth at 10 µM,HOP-62,74.2%
same,growth at 10 µM,RPMI-8226,76.2%
CCc1nnc(NC(=O)c2nnn(-c3ccc(C)cc3)c2N)s1,growth at 10 µM,T47D,77.4%
same,growth at 10 µM,SNB-75 [2],76.2%
same,growth at 10 µM,HOP-92 [1],71.5%
Cc1c(C(=O)Nc2ncc(Cc3ccccc3)s2)nnn1-c1ccccc1,growth at 10 µM,CAKI-1,80%
same,growth at 10 µM,A549,80.3%
Cc1ccc(-n2nnc(C(=O)Nc3cc(Cl)ccc3Cl)c2N)cc1,GI50,MDA-MB-231,6.17 µM
same,TGI,MDA-MB-231; read-out: pTGI,> 100 µM
same,GI50,Hs-578T,4.47 µM
same,TGI,Hs-578T; read-out: pTGI,> 100 µM
same,GI50,TK-10,5.89 µM
same,TGI,TK-10; read-out: pTGI,> 100 µM
same,GI50,RXF 393 [3],3.47 µM
same,TGI,RXF 393 [3]; read-out: pTGI (converted),50.1 µM
same,GI50,SK-OV-3,2.82 µM
same,TGI,SK-OV-3; read-out: pTGI,> 100 µM
same,GI50,OVCAR-4,1.62 µM
same,TGI,OVCAR-4; read-out: pTGI,> 100 µM
same,GI50,Malme-3M,2.45 µM
same,TGI,Malme-3M; read-out: pTGI,> 100 µM
same,GI50,U-251 [4],6.03 µM
same,TGI,U-251 [4]; read-out: pTGI,> 100 µM
same,GI50,SNB-75 [5],1.38 µM
same,TGI,SNB-75 [5]; read-out: pTGI (converted),6.03 µM
same,GI50,SF-539,4.27 µM
same,TGI,SF-539; read-out: pTGI,> 100 µM
same,GI50,SF-295,5.01 µM
same,TGI,SF-295; read-out: pTGI,> 100 µM
same,GI50,SF-268 [6],5.5 µM
same,TGI,SF-268 [6]; read-out: pTGI,> 100 µM
same,GI50,HOP-92 [7],0.589 µM
same,TGI,HOP-92 [7]; read-out: pTGI (converted),5.89 µM
same,GI50,SR [8],2.51 µM
same,TGI,SR [8]; read-out: pTGI (converted),60.3 µM
same,GI50,K562 [9],7.76 µM
same,TGI,K562 [9]; read-out: pTGI,> 100 µM
same,growth at 10 µM,UO-31,-7.62%
same,growth at 10 µM,RXF 393 [10],-13.4%
same,growth at 10 µM,786-0,2.96%
same,growth at 10 µM,SNB-75 [2],1.32%
same,growth at 10 µM,HOP-92 [1],-3.42%
Cc1c(C(=O)Nc2cccc(C(F)(F)F)c2)nnn1-c1ccc2noc(-c3ccccc3)c2c1,growth at 10 µM,UO-31,78.5%
same,growth at 10 µM,K562 [11],89.8%
Nc1c(C(=O)c2c[nH]c3ccccc23)nnn1-c1ccccc1,growth at 10 µM,MDA-MB-468,78.5%
same,growth at 10 µM,MCF7,73.7%
CCc1ccc(NC(=O)c2nnn(-c3ccc(OC)cc3)c2N)cc1,growth at 10 µM,MDA-MB-468,62.6%
same,growth at 10 µM,SK-MEL-5,56.3%
same,growth at 10 µM,RPMI-8226,60.9%
COc1ccccc1-n1nnc(C(=O)Nc2ncc(Cc3ccccc3)s2)c1C,growth at 10 µM,UO-31,73.3%
same,growth at 10 µM,OVCAR-8,68%
same,growth at 10 µM,U-251 [12],75.6%
same,growth at 10 µM,SNB-75 [2],53.9%
same,growth at 10 µM,SF-268 [13],75.5%
same,growth at 10 µM,HOP-62,54.8%
Cc1ccccc1-n1nnc(C(=O)Nc2ccc(Cl)cc2Cl)c1N,growth at 10 µM,T47D,60.9%
same,growth at 10 µM,SK-MEL-5,55.9%
same,growth at 10 µM,[14],56.7%
same,growth at 10 µM,RPMI-8226,59.6%
Cc1ccc(-n2nnc(C(=O)NCc3ccccc3)c2N)cc1,growth at 10 µM,SR [15],68.2%
same,growth at 10 µM,MOLT-4,75.8%
CCc1c(C(=O)Nc2cccc(Cl)c2)nnn1-c1ccc2noc(-c3ccccc3)c2c1,growth at 10 µM,MCF7,81.7%
same,growth at 10 µM,UO-31,82.6%
same,growth at 10 µM,SR [15],77.6%
